From ChEMBL document CHEMBL3885881, “DrugMatrix”

Species: Rattus norvegicus
Experiment: DrugMatrix - Regimen: Daily Repeat
Assay type: toxicity, organism-based, Sprague-Dawley
Parameters: regimen Daily Repeat, gender Male, age 6-8 weeks
Settings: in vivo, po, route oral GAVAGE, […]; for ABSOLUTE BASOPHIL / ABSOLUTE EOSINOPHIL / ABSOLUTE LYMPHOCYTE / ABSOLUTE MONOCYTE / ABSOLUTE SEGMENTED NEUTROPHIL / BASOPHIL / EOSINOPHIL / ERYTHROCYTE COUNT / HEMATOCRIT / HEMOGLOBIN / LEUKOCYTE COUNT / LYMPHOCYTE / MEAN CORPUSCULAR HEMOGLOBIN / MEAN CORPUSCULAR HEMOGLOBIN CONCENTRATION / MEAN CORPUSCULAR VOLUME / MONOCYTE / NEUTROPHIL / NUCLEATED RED BLOOD CELLS / PLATELET COUNT: tissue Blood; for ALANINE AMINOTRANSFERASE / ALBUMIN / ALKALINE PHOSPHATASE / ASPARTATE AMINOTRANSFERASE / BLOOD UREA NITROGEN / CARBON DIOXIDE / CHLORIDE / CHOLESTEROL / CREATINE PHOSPHOKINASE / CREATININE / GLUCOSE / LACTATE DEHYDROGENASE / LIPASE / PHOSPHORUS / POTASSIUM / SODIUM / TOTAL BILIRUBIN / TOTAL PROTEIN: tissue Plasma
[1] = 20 mg/kg, 72 h, dose level Low, time 3 day
[2] = 20 mg/kg, 120 h, dose level Low, time 5 day
[3] = 210 mg/kg, 72 h, dose level High, time 3 day
[4] = 210 mg/kg, 120 h, dose level High, time 5 day

Compound: CN[C@H]1CC[C@@H](c2ccc(Cl)c(Cl)c2)c2ccccc21 [SERTRALINE]
- ABSOLUTE BASOPHIL [1]: 0 CELLS/uL
- ABSOLUTE EOSINOPHIL [1]: 28.33 CELLS/uL
- ABSOLUTE LYMPHOCYTE [1]: 10624.33 CELLS/uL
- ABSOLUTE MONOCYTE [1]: 86.67 CELLS/uL
- ABSOLUTE SEGMENTED NEUTROPHIL [1]: 1294 CELLS/uL
- BASOPHIL [1]: 0%
- EOSINOPHIL [1]: 0.33%
- ERYTHROCYTE COUNT [1]: 5.85 x10E6/uL
- HEMATOCRIT [1]: 36.57%
- HEMOGLOBIN [1]: 14.27 G/DL
- LEUKOCYTE COUNT [1]: 12.03 x10E3/uL
- LYMPHOCYTE [1]: 87.67%
- MEAN CORPUSCULAR HEMOGLOBIN [1]: 24.37 pg
- MEAN CORPUSCULAR HEMOGLOBIN CONCENTRATION [1]: 39.03 G/DL
- MEAN CORPUSCULAR VOLUME [1]: 62.47 fL
- MONOCYTE [1]: 0.67%
- NEUTROPHIL [1]: 11.33%
- NUCLEATED RED BLOOD CELLS [1]: 0 /100WBC
- PLATELET COUNT [1]: 1161.67 x10E3/uL
- ALANINE AMINOTRANSFERASE [1]: 70.33 u/L
- ALBUMIN [1]: 4.23 G/DL
- ALKALINE PHOSPHATASE [1]: 384.33 u/L
- ASPARTATE AMINOTRANSFERASE [1]: 83.33 u/L
- BLOOD UREA NITROGEN [1]: 14 mg/dL
- CARBON DIOXIDE [1]: 29.67 mmol/L
- CHLORIDE [1]: 103 MEQ/L
- CHOLESTEROL [1]: 79 mg/dL
- CREATINE PHOSPHOKINASE [1]: 163 u/L
- CREATININE [1]: 0.23 mg/dL
- GLUCOSE [1]: 158 mg/dL
- LACTATE DEHYDROGENASE [1]: 155 u/L
- LIPASE [1]: 11 u/L
- PHOSPHORUS [1]: 12.33 mg/dL
- POTASSIUM [1]: 6.97 MEQ/L
- SODIUM [1]: 147.8 MEQ/L
- TOTAL BILIRUBIN [1]: 0.17 mg/dL
- TOTAL PROTEIN [1]: 5.57 G/DL
- ABSOLUTE BASOPHIL [2]: 0 CELLS/uL
- ABSOLUTE EOSINOPHIL [2]: 46.67 CELLS/uL
- ABSOLUTE LYMPHOCYTE [2]: 12898.33 CELLS/uL
- ABSOLUTE MONOCYTE [2]: 0 CELLS/uL
- ABSOLUTE SEGMENTED NEUTROPHIL [2]: 955 CELLS/uL
- BASOPHIL [2]: 0%
- EOSINOPHIL [2]: 0.33%
- ERYTHROCYTE COUNT [2]: 5.71 x10E6/uL
- HEMATOCRIT [2]: 34.57%
- HEMOGLOBIN [2]: 13.57 G/DL
- LEUKOCYTE COUNT [2]: 13.9 x10E3/uL
- LYMPHOCYTE [2]: 92.33%
- MEAN CORPUSCULAR HEMOGLOBIN [2]: 23.83 pg
- MEAN CORPUSCULAR HEMOGLOBIN CONCENTRATION [2]: 39.27 G/DL
- MEAN CORPUSCULAR VOLUME [2]: 60.73 fL
- MONOCYTE [2]: 0%
- NEUTROPHIL [2]: 7.33%
- NUCLEATED RED BLOOD CELLS [2]: 0 /100WBC
- PLATELET COUNT [2]: 913 x10E3/uL
- ALANINE AMINOTRANSFERASE [2]: 60.33 u/L
- ALBUMIN [2]: 4.27 G/DL
- ALKALINE PHOSPHATASE [2]: 427 u/L
- ASPARTATE AMINOTRANSFERASE [2]: 85 u/L
- BLOOD UREA NITROGEN [2]: 13.67 mg/dL
- CARBON DIOXIDE [2]: 25.33 mmol/L
- CHLORIDE [2]: 103.33 MEQ/L
- CHOLESTEROL [2]: 77.67 mg/dL
- CREATINE PHOSPHOKINASE [2]: 211 u/L
- CREATININE [2]: 0.18 mg/dL
- GLUCOSE [2]: 164.33 mg/dL
- LACTATE DEHYDROGENASE [2]: 121.33 u/L
- LIPASE [2]: 10.33 u/L
- PHOSPHORUS [2]: 12.77 mg/dL
- POTASSIUM [2]: 7.01 MEQ/L
- SODIUM [2]: 147.5 MEQ/L
- TOTAL BILIRUBIN [2]: 0.2 mg/dL
- TOTAL PROTEIN [2]: 5.9 G/DL
- ABSOLUTE BASOPHIL [3]: 0 CELLS/uL
- ABSOLUTE EOSINOPHIL [3]: 0 CELLS/uL
- ABSOLUTE LYMPHOCYTE [3]: 11258 CELLS/uL
- ABSOLUTE MONOCYTE [3]: 82.33 CELLS/uL
- ABSOLUTE SEGMENTED NEUTROPHIL [3]: 1226.33 CELLS/uL
- BASOPHIL [3]: 0%
- EOSINOPHIL [3]: 0%
- ERYTHROCYTE COUNT [3]: 6.22 x10E6/uL
- HEMATOCRIT [3]: 39.43%
- HEMOGLOBIN [3]: 15.5 G/DL
- LEUKOCYTE COUNT [3]: 12.57 x10E3/uL
- LYMPHOCYTE [3]: 89.67%
- MEAN CORPUSCULAR HEMOGLOBIN [3]: 24.93 pg
- MEAN CORPUSCULAR HEMOGLOBIN CONCENTRATION [3]: 39.33 G/DL
- MEAN CORPUSCULAR VOLUME [3]: 63.33 fL
- MONOCYTE [3]: 0.67%
- NEUTROPHIL [3]: 9.67%
- NUCLEATED RED BLOOD CELLS [3]: 0 /100WBC
- PLATELET COUNT [3]: 1225 x10E3/uL
- ALANINE AMINOTRANSFERASE [3]: 53.67 u/L
- ALBUMIN [3]: 4.33 G/DL
- ALKALINE PHOSPHATASE [3]: 460.67 u/L
- ASPARTATE AMINOTRANSFERASE [3]: 112 u/L
- BLOOD UREA NITROGEN [3]: 16 mg/dL
- CARBON DIOXIDE [3]: 28.33 mmol/L
- CHLORIDE [3]: 101.33 MEQ/L
- CHOLESTEROL [3]: 55.33 mg/dL
- CREATINE PHOSPHOKINASE [3]: 286.67 u/L
- CREATININE [3]: 0.22 mg/dL
- GLUCOSE [3]: 117.33 mg/dL
- LACTATE DEHYDROGENASE [3]: 163.33 u/L
- LIPASE [3]: 10.33 u/L
- PHOSPHORUS [3]: 11.53 mg/dL
- POTASSIUM [3]: 6.21 MEQ/L
- SODIUM [3]: 146.43 MEQ/L
- TOTAL BILIRUBIN [3]: 0.1 mg/dL
- TOTAL PROTEIN [3]: 5.97 G/DL
- ABSOLUTE BASOPHIL [4]: 0 CELLS/uL
- ABSOLUTE EOSINOPHIL [4]: 207 CELLS/uL
- ABSOLUTE LYMPHOCYTE [4]: 18574.33 CELLS/uL
- ABSOLUTE MONOCYTE [4]: 70.33 CELLS/uL
- ABSOLUTE SEGMENTED NEUTROPHIL [4]: 1848.33 CELLS/uL
- BASOPHIL [4]: 0%
- EOSINOPHIL [4]: 1%
- ERYTHROCYTE COUNT [4]: 6.11 x10E6/uL
- HEMATOCRIT [4]: 37.3%
- HEMOGLOBIN [4]: 14.97 G/DL
- LEUKOCYTE COUNT [4]: 20.7 x10E3/uL
- LYMPHOCYTE [4]: 89.67%
- MEAN CORPUSCULAR HEMOGLOBIN [4]: 24.53 pg
- MEAN CORPUSCULAR HEMOGLOBIN CONCENTRATION [4]: 40.13 G/DL
- MEAN CORPUSCULAR VOLUME [4]: 61.1 fL
- MONOCYTE [4]: 0.33%
- NEUTROPHIL [4]: 9%
- NUCLEATED RED BLOOD CELLS [4]: 0 /100WBC
- PLATELET COUNT [4]: 1278.33 x10E3/uL
- ALANINE AMINOTRANSFERASE [4]: 67 u/L
- ALBUMIN [4]: 4.07 G/DL
- ALKALINE PHOSPHATASE [4]: 368.33 u/L
- ASPARTATE AMINOTRANSFERASE [4]: 101.67 u/L
- BLOOD UREA NITROGEN [4]: 18 mg/dL
- CARBON DIOXIDE [4]: 26 mmol/L
- CHLORIDE [4]: 102.67 MEQ/L
- CHOLESTEROL [4]: 74 mg/dL
- CREATINE PHOSPHOKINASE [4]: 255.33 u/L
- CREATININE [4]: 0.23 mg/dL
- GLUCOSE [4]: 153 mg/dL
- LACTATE DEHYDROGENASE [4]: 287.33 u/L
- LIPASE [4]: 10 u/L
- PHOSPHORUS [4]: 12.3 mg/dL
- POTASSIUM [4]: 6.87 MEQ/L
- SODIUM [4]: 146.47 MEQ/L
- TOTAL BILIRUBIN [4]: 0.13 mg/dL
- TOTAL PROTEIN [4]: 5.9 G/DL
